Assay results reported in PMC6366418, “Evaluation of a flavonoids library for inhibition of pancreatic α-amylase towards a structure–activity relationship” (Journal of Enzyme Inhibition and Medicinal Chemistry, 2019).
Entries after “also recorded” stand apart in the source; their conditions may differ. Where two headings read alike, the source gives them in different places.

Assays:
[1] = biological target: T1, porcine pancreatic α-amylase (Sus scrofa, UniProt P00690); experiment: In vitro pancreatic α-amylase inhibition assay (CNPG3 substrate, 405 nm); format: biochemical; details: for IC50: enzyme 0.2 U/mL, CNPG3 0.5 mM, pH 6.8, 37 °C; for Inhibition of α-amylase activity (in words): up to the highest tested concentration (200 µM);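 for all read-outs here: enzyme rate taken from the absorbance slope between 5 and 30 min of CNPG3 hydrolysis, inhibition derived from these rates, at least three independent experiments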
T1 construct: α-Amylase from porcine pancreas; purchased Sigma-Aldrich Co. LLC (St. Louis, MO); host or cells: porcine pancreas (tissue-derived commercial preparation)
T1 sequence (P00690 16-511): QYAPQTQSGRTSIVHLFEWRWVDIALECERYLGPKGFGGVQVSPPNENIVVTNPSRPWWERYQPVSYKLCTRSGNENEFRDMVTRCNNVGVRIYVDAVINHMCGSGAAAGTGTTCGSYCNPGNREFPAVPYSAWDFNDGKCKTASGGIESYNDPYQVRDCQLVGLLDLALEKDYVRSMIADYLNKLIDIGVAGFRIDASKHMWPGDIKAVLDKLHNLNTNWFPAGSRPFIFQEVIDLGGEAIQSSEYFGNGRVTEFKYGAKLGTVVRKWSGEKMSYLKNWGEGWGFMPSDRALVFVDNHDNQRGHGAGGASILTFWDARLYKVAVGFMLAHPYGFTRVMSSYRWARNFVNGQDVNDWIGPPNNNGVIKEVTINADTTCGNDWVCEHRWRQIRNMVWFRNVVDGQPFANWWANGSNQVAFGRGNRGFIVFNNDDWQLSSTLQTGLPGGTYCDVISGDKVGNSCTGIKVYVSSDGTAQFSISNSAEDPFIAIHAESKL

[2] = biological target: T2, α-amylase from porcine pancreas (Sus scrofa, UniProt P00690); experiment: Inhibitory kinetics of α-amylase (nonlinear regression, Excel Solver); format: biochemical; details: for Type of inhibition: CNPG3 0.25, 0.5 and 1 mM, best model by F test and AIC; for Vmax: best model; for V max (Solver fit): rate axis DA/min
T2 construct: α-Amylase from porcine pancreas; purchased Sigma-Aldrich Co. LLC (St. Louis, MO); host or cells: porcine pancreas (tissue-derived commercial preparation)
T2 sequence (P00690 16-511): T1 sequence (P00690 16-511)

α-amylase = system: α-amylase; parameters: method as in Kim et al.[55] and Yoon and Robyt,[52]; details: ref Kim et al.[55] and Yoon and Robyt,[52]; cited from earlier work
[3] = biological target: T1, porcine pancreatic α-amylase; parameters: method as in Tadera et al.,[21]; details: highest tested concentration of 0.5 mM; ref Tadera et al.,[21]; cited from earlier work
[4] = 200 µM, mean ± SEM, read-out: Inhibition (%) at the highest tested concentration
[5] = competitive inhibition constant, ± SD (jackknife), read-out: Kic
[6] = supplement, competitive inhibition model
[7] = supplement, competitive inhibition model, read-out: K ic (Solver fit)

Compound: O=c1cc(-c2ccccc2)oc2ccccc12 [A1, Flavone]
- inhibition at 200 µM [1, 4]: < 20%

Compound: O=c1cc(-c2cccc(O)c2)oc2ccccc12 [A2]
- inhibition at 200 µM [1, 4]: < 20%

Compound: O=c1cc(-c2ccc(O)cc2)oc2ccccc12 [A3]
- inhibition at 200 µM [1, 4]: < 20%

Compound: O=c1cc(-c2ccc(O)c(O)c2)oc2ccccc12 [A4]
- inhibition at 200 µM [1, 4]: 46 ± 2%

Compound: O=c1c(O)c(-c2ccc(O)c(O)c2)oc2ccccc12 [A5]
- inhibition at 200 µM [1, 4]: 31 ± 3%

Compound: COc1ccc(-c2oc3ccccc3c(=O)c2O)cc1OC [A6]
- inhibition at 200 µM [1, 4]: < 20%

Compound: C[C@H]1O[C@H](O[C@H]2[C@H](O)[C@@H](O)[C@@H](O[C@H]3[C@H](O)[C@@H](O)C(O)O[C@@H]3CO)O[C@@H]2CO)[C@H](O)[C@@H](O)[C@@H]1N[C@H]1C=C(CO)[C@@H](O)[C@H](O)[C@H]1O (stereo partly drawn) [Acarbose, reference compound]
- Type of inhibition [2]: Mixed
- Type of inhibition ([2]; listed as acarbose): mixed-type inhibitor; also recorded: mixed-type inhibition
- Vmax ([2]; ± SD (jackknife)): 12.0 ± 0.9 µmol/min
- V max (Solver fit) ([2]; supplement, mixed inhibition model): 39,76745004
- Type of inhibition (α-amylase): mixed type inhibitor

Compound: O=c1cc(-c2ccccc2)oc2cccc(O)c12 [B1]
- inhibition at 200 µM [1, 4]: < 2%

Compound: O=c1cc(-c2cccc(O)c2)oc2cccc(O)c12 [B2]
- inhibition at 200 µM [1, 4]: < 20%

Compound: O=c1cc(-c2ccc(O)cc2)oc2cccc(O)c12 [B3]
- inhibition at 200 µM [1, 4]: < 20%

Compound: O=c1cc(-c2ccc(O)c(O)c2)oc2cccc(O)c12 [B4]
- Type of inhibition [2]: competitive inhibitors; also recorded: competitive inhibition
- Vmax ([2]; ± SD (jackknife)): 12.0 ± 0.6 µmol/min
- Ki [2, 5]: 132 ± 15 µM
- V max (Solver fit) [2, 6]: 40,026555
- Ki [2, 7]: 132 µM
- IC50 ([1]; mean ± SEM): 148 ± 5 µM

Compound: O=c1cc(-c2ccccc2)oc2cc(O)ccc12 [C1]
- inhibition at 200 µM ([1]; read-out: Inhibition (%) at the highest tested concentration): < 20%

Compound: O=c1cc(-c2cccc(O)c2)oc2cc(O)ccc12 [C2]
- inhibition at 200 µM [1, 4]: 28 ± 3%

Compound: O=c1cc(-c2ccc(O)cc2)oc2cc(O)ccc12 [C3]
- inhibition at 200 µM [1, 4]: 36 ± 3%
- Inhibition of α-amylase activity (in words) [1]: lack of inhibitory activity

Compound: O=c1c(O)c(-c2cccc(O)c2)oc2cc(O)ccc12 [C4]
- inhibition at 200 µM [1, 4]: 34 ± 3%
- Inhibition of α-amylase activity (in words) [1]: low activity

Compound: O=c1c(O)c(-c2ccc(O)cc2)oc2cc(O)ccc12 [C5]
- Type of inhibition [2]: competitive inhibitors; also recorded: competitive inhibition
- Vmax ([2]; ± SD (jackknife)): 10.5 ± 0.9 µmol/min
- Ki [2, 5]: 71 ± 7 µM
- K m (Solver fit) [2, 6]: 0,9963 mM
- V max (Solver fit) [2, 6]: 35,186
- Ki [2, 7]: 71.4 µM
- IC50 ([1]; mean ± SEM): 59 ± 4 µM

Compound: O=c1cc(-c2ccc(O)c(O)c2)oc2cc(O)ccc12 [C6]
- IC50 ([1]; mean ± SEM): 131 ± 1 µM

Compound: COc1cccc(-c2oc3cc(OC)ccc3c(=O)c2O)c1 [C7]
- inhibition at 200 µM [1, 4]: < 20%
- Inhibition of α-amylase activity (in words) [1]: remained unchanged; also recorded: no inhibitory activity

Compound: COc1ccc(-c2oc3cc(OC)ccc3c(=O)c2O)cc1 [C8]
- inhibition at 100 µM ([1]; 100 µM, mean ± SEM, read-out: Inhibition (%) at the highest tested concentration): < 20%
- Inhibition of α-amylase activity (in words) [1]: remained unchanged; also recorded: no inhibitory activity

Compound: O=c1cc(-c2ccccc2)oc2cc(O)cc(O)c12 [D1, Chrysin]
- inhibition at 200 µM [1, 4]: 22 ± 3%

Compound: O=c1c(O)c(-c2ccccc2)oc2cc(O)cc(O)c12 [D2, Galangin]
- inhibition at 200 µM [1, 4]: < 20%

Compound: O=c1cc(-c2cccc(O)c2)oc2cc(O)cc(O)c12 [D4]
- IC50 ([1]; mean ± SEM): ~200 µM

Compound: O=c1c(O)c(-c2ccc(O)cc2)oc2cc(O)cc(O)c12 [D6, Kaempferol]
- IC50 ([1]; mean ± SEM): 118 ± 7 µM

Compound: O=c1cc(-c2ccc(O)c(O)c2)oc2cc(O)cc(O)c12 [D7, Luteolin]
- Decrease of inhibitory activity / increase of IC50 compared with D11 ([1]; fold, relative to D11): two-fold
- IC50 ([1]; mean ± SEM): 78 ± 3 µM

Compound: O=c1c(O)c(-c2cc(O)c(O)c(O)c2)oc2cc(O)cc(O)c12 [D9, Myricetin]
- IC50 ([1]; mean ± SEM): 107 ± 6 µM

Compound: COc1ccc(-c2cc(=O)c3c(O)cc(O)cc3o2)cc1OC [D18]
- inhibition at 200 µM [1, 4]: 33 ± 3%

Compound: C[C@@H]1O[C@@H](OC[C@H]2O[C@@H](Oc3c(-c4ccc(O)c(O)c4)oc4cc(O)cc(O)c4c3=O)[C@H](O)[C@@H](O)[C@@H]2O)[C@H](O)[C@H](O)[C@H]1O [D19, Rutin]
- inhibition at 200 µM [1, 4]: < 20%
- Inhibition of α-amylase activity (in words) [1]: no activity was found

Compound: O=C1C[C@@H](c2ccc(O)cc2)Oc2cc(O)cc(O)c21 [E1, Naringenin]
- inhibition at 200 µM [1, 4]: < 20%
- Inhibition of α-amylase activity (in words) [1]: not able to inhibit
- Inhibition of porcine pancreatic α-amylase activity (in words) [3]: not able to inhibit

Compound: O=C1C[C@@H](c2ccc(O)c(O)c2)Oc2cc(O)cc(O)c21 [E2, Eriodictyol]
- inhibition at 200 µM [1, 4]: < 20%
- Inhibition of α-amylase activity (in words) [1]: not able to inhibit

Compound: O=C1c2c(O)cc(O)cc2OC(c2ccc(O)c(O)c2)C1O (stereo not drawn) [E3, Taxifolin]
- inhibition at 200 µM [1, 4]: < 20%
- Inhibition of α-amylase activity (in words) [1]: not able to inhibit

Compound: Acacetin [D17]
- Inhibition (%) at the highest tested concentration ([1]; 200 µM, mean ± SEM): <20%^200 µM*

Compound: Morin [D10]
- Inhibition (%) at the highest tested concentration ([1]; 200 µM, mean ± SEM): 23 ± 1 %^200µM*
